In patent US10052320B2, “Substituted quinoxalines as FGFR kinase inhibitors” (ASTEX THERAPEUTICS LIMITED, priority 2011, dated 2018):
pIC50: −log10 of the molar value.

Tests used:
[1] = test system: Ba/F3-Flt3-transfected cells in the presence of 10 ng/ml murine IL3; assay: Ba/F3-Flt3 (plus IL3) cellular proliferation counterscreen, Alamar Blue; format: cell-based; conditions: plus 10 ng/ml murine IL3
KDR (h) (VEGFR2) = KDR (h) (VEGFR2) (Homo sapiens, UniProt P35968); assay: KDR (VEGFR2) (enzymatic assay), TR-FRET; format: biochemical
Sequence of KDR (h) (VEGFR2) (P35968 20-1356): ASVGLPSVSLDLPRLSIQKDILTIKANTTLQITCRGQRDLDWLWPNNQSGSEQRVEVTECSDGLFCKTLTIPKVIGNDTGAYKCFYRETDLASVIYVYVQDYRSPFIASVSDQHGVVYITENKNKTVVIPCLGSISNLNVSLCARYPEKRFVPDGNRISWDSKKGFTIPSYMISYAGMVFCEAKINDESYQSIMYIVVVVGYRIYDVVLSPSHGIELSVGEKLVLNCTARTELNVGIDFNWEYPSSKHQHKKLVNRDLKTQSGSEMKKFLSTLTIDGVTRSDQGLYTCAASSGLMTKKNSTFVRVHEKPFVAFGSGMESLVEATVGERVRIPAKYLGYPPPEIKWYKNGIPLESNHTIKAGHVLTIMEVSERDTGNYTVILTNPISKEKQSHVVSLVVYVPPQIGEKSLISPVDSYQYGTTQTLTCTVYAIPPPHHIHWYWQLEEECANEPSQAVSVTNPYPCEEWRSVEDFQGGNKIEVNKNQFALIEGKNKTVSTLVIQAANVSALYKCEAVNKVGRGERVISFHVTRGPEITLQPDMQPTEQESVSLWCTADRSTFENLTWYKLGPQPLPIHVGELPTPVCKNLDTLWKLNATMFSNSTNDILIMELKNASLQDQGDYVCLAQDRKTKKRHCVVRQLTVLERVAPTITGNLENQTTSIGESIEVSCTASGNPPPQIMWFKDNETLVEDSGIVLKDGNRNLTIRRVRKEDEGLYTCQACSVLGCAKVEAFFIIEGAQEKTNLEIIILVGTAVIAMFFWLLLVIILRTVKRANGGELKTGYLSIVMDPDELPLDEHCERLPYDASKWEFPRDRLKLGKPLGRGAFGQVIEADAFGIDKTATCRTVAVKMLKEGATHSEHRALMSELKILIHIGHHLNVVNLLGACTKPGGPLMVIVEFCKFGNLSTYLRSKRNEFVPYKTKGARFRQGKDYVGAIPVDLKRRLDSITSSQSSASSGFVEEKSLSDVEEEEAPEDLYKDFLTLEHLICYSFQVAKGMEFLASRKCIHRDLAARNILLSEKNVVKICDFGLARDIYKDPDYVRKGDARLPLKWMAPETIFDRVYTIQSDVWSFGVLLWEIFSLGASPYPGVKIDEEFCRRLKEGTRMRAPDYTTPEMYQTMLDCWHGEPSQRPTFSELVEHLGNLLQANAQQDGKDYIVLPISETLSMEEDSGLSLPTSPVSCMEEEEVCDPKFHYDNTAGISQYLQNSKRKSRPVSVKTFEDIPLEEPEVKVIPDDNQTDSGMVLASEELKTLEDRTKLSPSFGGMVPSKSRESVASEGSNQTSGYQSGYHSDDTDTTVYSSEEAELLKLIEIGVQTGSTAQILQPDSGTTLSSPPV
How it was run: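 Human KDR (150 ng/ml) was reacted with 500 nM Btn-Flt3 and 3 μM ATP in 50 mM HEPES pH 7.5, 6 mM MnCl2, 1 mM DTT, 0.1 mM Na3VO4, 0.01% Triton X-100, 1% DMSO, for 120 min at room temperature. Phosphorylation detected by TR-FRET (Eu-anti-P-Tyr/SA-XL665, 60 min), read in RFU.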

[2] = target: Ba/F3-FGFR1-transfected cells (Homo sapiens, UniProt P11362); assay: Ba/F3-FGFR1 (minus IL3) cellular proliferation assay, Alamar Blue; format: cell-based; conditions: for BAF3-FGFR 1 (MIN IL3) 384 well pIC50: minus IL3, 384 well; for BAF3-FGFR 1 (MIN IL3) 96 well pIC50: minus IL3, 96 well
Sequence of Ba/F3-FGFR1-transfected cells (P11362 whole entry, change not shown): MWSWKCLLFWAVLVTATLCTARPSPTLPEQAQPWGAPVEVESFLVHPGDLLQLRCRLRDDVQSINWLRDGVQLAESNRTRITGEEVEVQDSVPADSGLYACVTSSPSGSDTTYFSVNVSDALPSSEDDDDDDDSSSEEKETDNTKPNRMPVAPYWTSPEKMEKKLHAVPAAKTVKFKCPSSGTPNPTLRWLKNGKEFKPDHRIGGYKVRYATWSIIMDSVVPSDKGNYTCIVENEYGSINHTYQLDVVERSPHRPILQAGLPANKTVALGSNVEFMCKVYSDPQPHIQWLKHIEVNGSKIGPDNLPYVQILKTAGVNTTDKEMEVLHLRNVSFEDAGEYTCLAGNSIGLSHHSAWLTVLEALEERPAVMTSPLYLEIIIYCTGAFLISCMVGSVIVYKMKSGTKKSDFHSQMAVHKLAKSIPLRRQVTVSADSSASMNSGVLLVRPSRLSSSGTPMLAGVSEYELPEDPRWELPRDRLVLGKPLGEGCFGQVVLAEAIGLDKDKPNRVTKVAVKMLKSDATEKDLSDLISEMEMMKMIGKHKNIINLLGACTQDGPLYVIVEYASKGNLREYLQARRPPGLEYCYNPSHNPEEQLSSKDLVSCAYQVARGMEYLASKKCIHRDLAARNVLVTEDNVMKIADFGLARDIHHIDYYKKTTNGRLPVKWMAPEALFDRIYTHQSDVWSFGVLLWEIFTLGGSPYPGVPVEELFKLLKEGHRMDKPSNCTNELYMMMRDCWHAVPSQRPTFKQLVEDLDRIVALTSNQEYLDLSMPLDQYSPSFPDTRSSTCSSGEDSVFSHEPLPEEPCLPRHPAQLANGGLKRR
Experimental: Ba/F3-FGFR1 (Minus IL3 or Plus IL3) (Cellular Proliferation Assay)
Cells were put in an incubator at 37° C. and 5% CO2. After 24 hours, 10 μl of Alamar Blue solution (0.5 mM K3Fe(CN)6, 0.5 mM KaFe(CN)6, 0.15 mM Resazurin and 100 mM Phosphate Buffer) was added to the wells, incubated for 4 hours at 37° C. and 5% CO2 before RFU's (Relative Fluorescence Units) (ex. 540 nm., em. 590 nm.) were measured in a flurorescence plate reader. […]
In a 96 well plate, 180 μl cell culture medium (phenol red free RPMI-1640, 10% FBS, 2 mM L-Glutamine and 50 μg/ml Gentamycin) containing 10000 cells per well of Ba/F3-FGFR1-transfected cells were pipette and 20 μl of compound dilution in DMSO was added. Cells were put in an incubator at 37° C. and 5% CO2. After 24 hours, 40 μl of Alamar Blue solution (0.5 mM K3Fe(CN)6, 0.5 mM KaFe(CN)6, 0.15 mM Resazurin and 100 mM Phosphate Buffer) was added to the wells, incubated for 4 hours at 37° C. and 5% CO2 before RFU's (Relative Fluorescence Units) (ex. 540 nm., em. 590 nm.) were measured in a flurorescence plate reader.

FGFR4 (h) = FGFR4 (h) (Homo sapiens, UniProt P22455); assay: FGFR4 (enzymatic assay), TR-FRET; format: biochemical; conditions: read-out: FGFR 4 pIC50 (converted)
Sequence of FGFR4 (h) (P22455 22-802): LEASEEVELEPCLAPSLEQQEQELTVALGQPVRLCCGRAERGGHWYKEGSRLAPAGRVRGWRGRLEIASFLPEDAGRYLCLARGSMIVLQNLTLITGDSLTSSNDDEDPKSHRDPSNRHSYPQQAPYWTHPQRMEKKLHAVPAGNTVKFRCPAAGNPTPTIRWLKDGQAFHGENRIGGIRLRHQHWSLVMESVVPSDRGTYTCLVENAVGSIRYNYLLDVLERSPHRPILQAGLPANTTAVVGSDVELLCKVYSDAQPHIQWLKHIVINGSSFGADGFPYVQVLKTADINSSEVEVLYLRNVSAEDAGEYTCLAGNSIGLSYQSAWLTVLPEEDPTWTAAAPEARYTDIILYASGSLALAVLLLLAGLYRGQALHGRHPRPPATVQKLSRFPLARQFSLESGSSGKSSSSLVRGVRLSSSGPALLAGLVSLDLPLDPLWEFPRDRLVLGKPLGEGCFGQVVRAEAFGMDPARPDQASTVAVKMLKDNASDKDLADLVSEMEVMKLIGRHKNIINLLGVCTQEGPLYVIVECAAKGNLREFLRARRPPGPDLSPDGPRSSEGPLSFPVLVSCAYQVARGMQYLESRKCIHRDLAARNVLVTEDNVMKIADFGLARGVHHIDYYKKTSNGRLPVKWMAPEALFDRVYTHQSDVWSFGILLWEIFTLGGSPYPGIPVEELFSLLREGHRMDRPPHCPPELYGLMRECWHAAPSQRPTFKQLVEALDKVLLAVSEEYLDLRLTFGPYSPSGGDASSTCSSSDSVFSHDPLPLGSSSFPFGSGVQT
Experimental: (§1) In a final reaction volume of 30 μL, FGFR4 (h) (60 ng/ml) was incubated with 50 mM HEPES pH 7.5, 6 mM MnCl2, 1 mM DTT, 0.1 mM Na3VO4, 0.01% Triton-X-100, 500 nM Btn-Flt3 and 5 μM ATP in the presence of compound (1% DMSO final). […] Time-Resolved Fluorescence Resonance Energy Transfer (TR-FRET) signal (ex340 nm. Em 620 nm, em 655 nm) was measured afterwards and results are expressed in RFU (Relative Fluorescence Units).

FGFR1 (h) = FGFR1 (h) (Homo sapiens, UniProt P11362); assay: FGFR1 (enzymatic assay), TR-FRET; format: biochemical; conditions: read-out: FGFR 1 pIC50 (converted)
Sequence of FGFR1 (h) (P11362 22-822): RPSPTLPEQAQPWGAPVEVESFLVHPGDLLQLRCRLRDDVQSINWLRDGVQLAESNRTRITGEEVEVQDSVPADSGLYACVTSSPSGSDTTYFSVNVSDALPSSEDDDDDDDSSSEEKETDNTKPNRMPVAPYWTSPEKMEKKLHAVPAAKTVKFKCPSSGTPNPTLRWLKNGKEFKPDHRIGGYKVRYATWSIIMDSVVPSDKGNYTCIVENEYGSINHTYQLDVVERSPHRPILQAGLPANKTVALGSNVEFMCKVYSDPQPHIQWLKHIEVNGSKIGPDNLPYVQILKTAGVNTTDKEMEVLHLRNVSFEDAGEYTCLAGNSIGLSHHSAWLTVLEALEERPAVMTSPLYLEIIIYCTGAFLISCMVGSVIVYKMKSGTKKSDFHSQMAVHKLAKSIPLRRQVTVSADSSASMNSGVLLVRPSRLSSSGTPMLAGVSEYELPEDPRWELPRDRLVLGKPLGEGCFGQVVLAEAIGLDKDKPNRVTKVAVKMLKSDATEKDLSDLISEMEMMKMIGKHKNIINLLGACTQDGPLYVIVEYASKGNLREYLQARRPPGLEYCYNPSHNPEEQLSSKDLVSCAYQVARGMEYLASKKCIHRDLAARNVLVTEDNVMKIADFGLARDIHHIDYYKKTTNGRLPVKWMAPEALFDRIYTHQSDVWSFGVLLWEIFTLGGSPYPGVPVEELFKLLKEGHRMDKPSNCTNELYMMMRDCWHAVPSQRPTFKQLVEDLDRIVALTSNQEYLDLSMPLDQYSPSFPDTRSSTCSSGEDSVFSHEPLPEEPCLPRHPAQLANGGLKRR
Experimental: as §1, with “FGFR1” for “FGFR4”, “(25” for “(60”

SMILES	pIC50 (KDR (h) (VEGFR2))	BAF3-FGFR 1 (MIN IL3) 384 well pIC50 [2]	IC50 (FGFR4 (h)) [nM]	IC50 (FGFR1 (h)) [nM]	BAF3-FGFR 1 (MIN IL3) 96 well pIC50 [2]	BAF3-FLT3 (PLUS IL3) 384 well pIC50 [1]
COc1cc(OC)cc(N(CC(OC(C)=O)C(F)(F)F)c2ccc3ncc(-c4cccnc4)nc3c2)c1 (single isomer, unassigned) [Compound 75]						<5
COc1cc(OC)cc(N(CC2CC2)c2ccc3ncc(-c4nnn(C)n4)nc3c2)c1 [Compound 82]	< 6.00	<5	> 1000	309	5.03	
COc1cc(OC)cc(N(CC2CC2)c2ccc3ncc(C(=O)NCCN4CCOCC4)nc3c2)c1 [Compound 96]	< 6.00	<5	> 1000	~363		
COc1cc(OC)cc(N(CC2CC2)c2ccc3ncc(-c4nccs4)nc3c2)c1 [Compound 97]	< 5.00	<5	1050	575		
COc1cc(OC)cc(N(CC2CC2)c2ccc3ncc(Nc4nccs4)nc3c2)c1 [Compound 98]	< 6.00	<5	> 1000	437		
COc1cc(OC)cc(N(CC2CC2)c2ccc3ncc(C(=O)NCc4ccc(F)cc4)nc3c2)c1 [Compound 101]	< 6.00	<5	> 1000	> 1000	<5	
COc1cc(OC)cc(N(CC2CC2)c2ccc3ncc(Nc4nncs4)nc3c2)c1 [Compound 102]	< 6.00	<5	> 1000	> 1000	<5	
COc1cc(OC)cc(N(CC2CC2)c2ccc3ncc(-c4cccn4C)nc3c2)c1 [Compound 103]	< 6.00	<5	> 1000	> 1000	<5	
CNC(=O)c1cc(-c2cnc3ccc(N(CCNCC(F)(F)F)c4cc(OC)cc(OC)c4)cc3n2)ccn1 [Compound 113]	< 6.00	5.44	170	85.1		
COc1cc(OC)cc(N(CCCO)c2ccc3ncc(-c4ccc(N(C)C(=O)OC(C)(C)C)nc4)nc3c2)c1 [Compound 125]	< 6.00	5.37	174	34.7		

More lines, in order of rising pIC50 (KDR (h) (VEGFR2)), values ahead:

pIC50 (KDR (h) (VEGFR2))	BAF3-FGFR 1 (MIN IL3) 384 well pIC50 [2]	IC50 (FGFR4 (h)) [nM]	IC50 (FGFR1 (h)) [nM]	BAF3-FGFR 1 (MIN IL3) 96 well pIC50 [2]	SMILES	BAF3-FLT3 (PLUS IL3) 384 well pIC50 [1]
6.13	5.32	132	28.2		COc1cc(OC)cc(N(CC2CC2)c2ccc3ncc(-n4cnc(CO)c4)nc3c2)c1 [Compound 105]	
6.18	5.31	117	19.5		COc1cc(OC)cc(N(CCCO)c2ccc3ncc(-c4ccnc(C(=O)NCCCCN)c4)nc3c2)c1 [Compound 126]	
6.51	5.93	38	15.8		COc1cc(OC)cc(N(CCCO)c2ccc3ncc(-c4ccc(C)nc4)nc3c2)c1 [Compound 115]	
6.68	5.66	63.1	10.2		CNCCN(c1cc(OC)cc(OC)c1)c1ccc2ncc(-c3ccc(NC(=O)OC(C)(C)C)nc3)nc2c1 [Compound 81]	
6.70	6.63	251	16.2		CNC(=O)c1cc(-c2cnc3ccc(N(CCN4CCCC4CO)c4cc(OC)cc(OC)c4)cc3n2)ccn1 (stereo not drawn) [Compound 109]	
6.75	6.455	19.5	5.43		COc1cc(OC)cc(N(CCO)c2ccc3ncc(-c4ccc(N)nc4)nc3c2)c1 [Compound 106]	
7.31	6.45	7.94	1.17		COc1cc(OC)cc(N(CCNC(C)C)c2ccc3ncc(-c4ccccc4)nc3c2)c1 [Compound 121]	
